Consider 16 compounds from patent publication US20210395239A1 (Hoffmann-La Roche Inc., priority 2018, published 2021).

As a reminder, the inhibition is the drop in the measured response relative to a control, in per cent.

The target in data set [1] is T1, CYP2C9 (Homo sapiens, UniProt P11712).
T1 construct: tissue BD-Gentest 452117; host or cells: human liver microsomes
Put plainly: CYP inhibition assay in human liver microsome, CYP2C9. It counts as in vitro ADME. Particulars: substrate diclofenac 5 μM, first value of 2C9/2D6/3A4; for inhibition at 5 min, 10 µM: human, human liver microsomes, probe diclofenac 5 μM. The method in brief:
(§1)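 Pooled human liver microsomes with a substrate for each CYP were incubated with compound at 37 °C after NADPH addition, for 5 min (CYP2D6: 10 min), then quenched with acetonitrile containing labelled metabolite standards. Metabolite/internal-standard peak area ratios were measured by RapidFire MS/MS. % inhibition was scaled between DMSO and standard-inhibitor controls.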

The target in data set [2] is T2, CYP2D6 (Homo sapiens, UniProt P10635).
T2 construct: tissue BD-Gentest 452117; host or cells: human liver microsomes
Put plainly: CYP inhibition assay in human liver microsome, CYP2D6. Type of data set: in vitro ADME. Particulars: substrate dextromethorphan 5 μM, second value of 2C9/2D6/3A4; for inhibition at 10 min, 10 µM: human, human liver microsomes, probe dextromethorphan 5 μM. In a few lines:
as §1
For orientation: Liver microsomes are vesicles of endoplasmic reticulum, rich in cytochrome P450 enzymes.

T1 sequence (P11712 whole entry): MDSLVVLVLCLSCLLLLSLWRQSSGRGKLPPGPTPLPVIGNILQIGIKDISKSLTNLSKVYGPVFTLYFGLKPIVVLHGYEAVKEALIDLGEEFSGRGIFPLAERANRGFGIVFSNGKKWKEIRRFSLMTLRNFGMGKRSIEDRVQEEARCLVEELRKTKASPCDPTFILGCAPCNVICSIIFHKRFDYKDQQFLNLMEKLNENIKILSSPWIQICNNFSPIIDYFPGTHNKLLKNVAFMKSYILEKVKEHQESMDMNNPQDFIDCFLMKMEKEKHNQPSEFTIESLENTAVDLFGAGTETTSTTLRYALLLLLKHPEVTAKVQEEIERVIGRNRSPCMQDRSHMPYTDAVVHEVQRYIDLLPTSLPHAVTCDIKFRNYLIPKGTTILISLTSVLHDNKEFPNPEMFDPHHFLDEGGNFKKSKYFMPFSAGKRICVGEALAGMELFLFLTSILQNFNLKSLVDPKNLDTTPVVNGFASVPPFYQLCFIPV
T2 sequence (P10635 whole entry): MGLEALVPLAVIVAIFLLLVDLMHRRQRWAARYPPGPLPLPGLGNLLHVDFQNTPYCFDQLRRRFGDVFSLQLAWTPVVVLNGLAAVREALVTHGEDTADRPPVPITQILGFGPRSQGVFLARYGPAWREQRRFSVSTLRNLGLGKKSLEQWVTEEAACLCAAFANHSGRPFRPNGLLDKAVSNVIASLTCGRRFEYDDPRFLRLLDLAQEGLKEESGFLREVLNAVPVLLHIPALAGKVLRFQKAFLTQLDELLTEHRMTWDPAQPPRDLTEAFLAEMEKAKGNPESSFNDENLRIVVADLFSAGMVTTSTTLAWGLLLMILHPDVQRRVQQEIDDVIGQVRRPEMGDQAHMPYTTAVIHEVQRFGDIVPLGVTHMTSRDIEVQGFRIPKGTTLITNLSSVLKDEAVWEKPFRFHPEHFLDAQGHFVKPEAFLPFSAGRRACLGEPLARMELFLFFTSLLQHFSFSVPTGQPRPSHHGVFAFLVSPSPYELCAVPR

`C[C@@H]1CN(c2ccc(C#N)c3ncccc23)C[C@H](CN2CCN(c3ccnc(N4CCNCC(O)C4)n3)CC2)O1` (stereo partly drawn) [Example 25, 5-[(2S,6R)-2-[[4-[2-(6-hydroxy-1,4-diazepan-1-yl)pyrimidin-4-yl]piperazin-1-yl]methyl]-6-methyl-morpholin-4-yl]quinoline-8-carbonitrile]: the inhibition at 5 min, 10 µM in data set [1] was -5.5%. For the same compound, the inhibition at 10 min, 10 µM in data set [2] was 5.5%.
Take `COC1CN(c2ccc(N3CCN(C[C@H]4CN(c5ccc(C#N)c6ncccc56)C[C@@H](C)O4)CC3)cn2)CC1N` (stereo partly drawn) [Example 43, 5-[(2S,6R)-2-[[4-[6-(3-amino-4-methoxy-pyrrolidin-1-yl)-3-pyridyl]piperazin-1-yl]methyl]-6-methyl-morpholin-4-yl]quinoline-8-carbonitrile]: in data set [1], the inhibition at 5 min, 10 µM was 2.5%. In addition, the inhibition at 10 min, 10 µM in data set [2] is -11%.
The like results for `COC1CNC[C@H]1Nc1cccc(N2CCN(C[C@H]3CN(c4ccc(C#N)c5ncccc45)C[C@@H](C)O3)CC2)n1` (stereo in doubt) [Example 39, 5-[(2S,6R)-2-[[4-[6-[[(3R,4R)-4-methoxypyrrolidin-3-yl]amino]-2-pyridyl]piperazin-1-yl]methyl]-6-methyl-morpholin-4-yl]quinoline-8-carbonitrile] were, in that order, 23% and -4%.
With `C[C@@H]1CN(c2ccc(C#N)c3ncccc23)C[C@H](CN2CCN(c3nccc(N4CCNCC4)n3)CC2)O1` [Example 14, 5-[(2R,6S)-2-methyl-6-[[4-(4-piperazin-1-ylpyrimidin-2-yl)piperazin-1-yl]methyl]morpholin-4-yl]quinoline-8-carbonitrile], the inhibition at 5 min, 10 µM in data set [1] worked out at 0%. Also, the inhibition at 10 min, 10 µM in data set [2] is 16.5%.
In the case of `C[C@@H]1CN(c2ccc(C#N)c3ncccc23)C[C@H](CN2CCN(c3cc(N4CCNCC4)ccn3)CC2)O1` [Example 9, 5-[(2R,6S)-2-methyl-6-[[4-(4-piperazin-1-yl-2-pyridyl)piperazin-1-yl]methyl]morpholin-4-yl]quinoline-8-carbonitrile], the inhibition at 5 min, 10 µM in data set [1] is -7.5%. Moreover, the inhibition at 10 min, 10 µM in data set [2] came out at 2%.
The like results for `C[C@@H]1CN(c2ccc(C#N)c3ncccc23)C[C@H](CN2CCC(C#N)(c3ccc(N4CCNCC4)cc3)CC2)O1` [Example 11, 5-[(2S,6R)-2-[[4-cyano-4-(4-piperazin-1-ylphenyl)-1-piperidyl]methyl]-6-methyl-morpholin-4-yl]quinoline-8-carbonitrile] were, in that order, 0.5% and 0%.
The like results for `C[C@@H]1CN(c2ccc(C#N)c3ncccc23)C[C@H](CN2CCN(c3ccnc(N4CCN[C@@H](CO)C4)n3)CC2)O1` [Example 29, 5-[(2S,6R)-2-[[4-[2-[(3R)-3-(hydroxymethyl)piperazin-1-yl]pyrimidin-4-yl]piperazin-1-yl]methyl]-6-methyl-morpholin-4-yl]quinoline-8-carbonitrile] were, in that order, -2% and 8.5%.
With `C[C@@H]1CN(c2ccc(C#N)c3ncccc23)C[C@H](CN2CCN(c3ccnc(N[C@H]4CNC[C@H]4F)n3)CC2)O1` [Example 24, 5-[(2S,6R)-2-[[4-[2-[[(3S,4R)-4-fluoropyrrolidin-3-yl]amino]pyrimidin-4-yl]piperazin-1-yl]methyl]-6-methyl-morpholin-4-yl]quinoline-8-carbonitrile], the inhibition at 5 min, 10 µM in data set [1] was 3.5%. Further, the inhibition at 10 min, 10 µM in data set [2] came out at 6%.
For `C[C@@H]1CN(c2ccc(C#N)n3ncc(F)c23)C[C@H](CN2CCN(c3ccc(N4CC5(CN(C)C5)C4)nc3)CC2)O1` [Example 170, 3-fluoro-4-[(2R,6S)-2-methyl-6-[[4-[6-(6-methyl-2,6-diazaspiro[3.3]heptan-2-yl)-3-pyridyl]piperazin-1-yl]methyl]morpholin-4-yl]pyrazolo[1,5-a]pyridine-7-carbonitrile], the inhibition at 5 min, 10 µM in data set [1] is -1%. Besides, in data set [2], the inhibition at 10 min, 10 µM worked out at 0%.
Turning to `C[C@@H]1CN(c2ccc(C#N)c3ncccc23)C[C@H](CN2CCN(c3ccnc(N4CCN(C)CC4)n3)CC2)O1` [Example 22, 5-((2R,6S)-2-methyl-6-((4-(2-(4-methylpiperazin-1-yl)pyrimidin-4-yl)piperazin-1-yl)methyl)morpholino)quinoline-8-carbonitrile], the inhibition at 5 min, 10 µM in data set [1] was 20%. For the same compound, in data set [2], the inhibition at 10 min, 10 µM is 2%.
The like results for `C[C@@H]1CN(c2ccc(C#N)c3ncccc23)C[C@H](CN2CCN(c3nc(N4CCNCC4)ncc3F)CC2)O1` [Example 45, 5-[(2S,6R)-2-[[4-(5-fluoro-2-piperazin-1-yl-pyrimidin-4-yl)piperazin-1-yl]methyl]-6-methyl-morpholin-4-yl]quinoline-8-carbonitrile] were, in that order, -3.5% and 5%.
The like results for `C[C@@H]1CN(c2ccc(C#N)c3ncccc23)C[C@H](CN2CCN(c3ccc(N4CCNCC4)cn3)CC2)O1` [Example 8, 5-[(2R,6S)-2-methyl-6-[[4-(5-piperazin-1-yl-2-pyridyl)piperazin-1-yl]methyl]morpholin-4-yl]quinoline-8-carbonitrile] were, in that order, 1% and 6%.
Turning to `COC1CN(c2nccc(N3CCN(C[C@H]4CN(c5ccc(C#N)c6ncccc56)C[C@@H](C)O4)CC3)n2)C[C@H]1N` (stereo in doubt) [Example 52, 5-[(2S,6R)-2-[[4-[2-[(3R,4R)-3-amino-4-methoxy-pyrrolidin-1-yl]pyrimidin-4-yl]piperazin-1-yl]methyl]-6-methyl-morpholin-4-yl]quinoline-8-carbonitrile], the “CYP (%) 2C9 inhibition” value in data set [1] stood at 3.5%. Moreover, the “CYP (%) 2D6 inhibition” value in data set [2] is given as 10.5%.
Consider `C[C@@H]1CN(c2ccc(C#N)c3ncccc23)C[C@H](CN2CCN(c3ccc([C@@H]4CNCCO4)cc3)CC2)O1` [Example 19, 5-[(2R,6S)-2-methyl-6-[[4-[4-[(2R)-morpholin-2-yl]phenyl]piperazin-1-yl]methyl]morpholin-4-yl]quinoline-8-carbonitrile], for which the inhibition at 5 min, 10 µM in data set [1] amounted to 11.5%. For the same compound, the inhibition at 10 min, 10 µM in data set [2] was determined as 0.5%.
In the case of `CO[C@H]1CN(c2nccc(N3CCN(C[C@H]4CN(c5ccc(C#N)c6ncccc56)C[C@@H](C)O4)CC3)n2)CC1N` (stereo in doubt) [Example 53, 5-[(2S,6R)-2-[[4-[2-[(3S,4S)-3-amino-4-methoxy-pyrrolidin-1-yl]pyrimidin-4-yl]piperazin-1-yl]methyl]-6-methyl-morpholin-4-yl]quinoline-8-carbonitrile], in data set [1], the “CYP (%) 2C9 inhibition” value is −4.5%. For the same compound, the “CYP (%) 2D6 inhibition” value in data set [2] worked out at 21.5%.
Regarding `C[C@@H]1CN(c2ccc(C#N)c3ncccc23)C[C@H](CN2CCN(c3cc(N4CCN(C)CC4)ncn3)CC2)O1` [Example 21, 5-[(2R,6S)-2-methyl-6-[[4-[6-(4-methylpiperazin-1-yl)pyrimidin-4-yl]piperazin-1-yl]methyl]morpholin-4-yl]quinoline-8-carbonitrile], in data set [1], the inhibition at 5 min, 10 µM is -3%. Besides, the inhibition at 10 min, 10 µM in data set [2] was determined as 2.5%.
